According to patent US12691089B2, “Stable levothyroxine compositions in aprotic polar solvents” (Xeris Pharmaceuticals, Inc., priority 2022, dated 2026):

Key:
[1] = cited from earlier work
[2] = Solubility of levothyroxine sodium in DMSO; type: physicochemical; conditions: organic solvent or mixture
Description: However, direct dissolution of levothyroxine sodium in DMSO (with no added excipients) caused rapid visual discoloration and chemical degradation (where the extent of discoloration generally correlates with degradation). […] Additionally, the chemical degradation appeared to be associated with the discoloration of the solution that was observed.

[3] = Storage stability of levothyroxine formulations in acidified DMSO (RP-HPLC T4/T3); type: physicochemical; conditions: 10 mg/mL in DMSO
Procedure: Based on the results shown above, formulations of levothyroxine sodium were prepared at an acid concentration that promoted chemical stability and a moisture content of at least 4% (w/w). […] The overall moisture content of the formulation was ~5% when prepared using 1.0 N H2SO4. The moisture content of this formulation was due almost entirely to the added sulfuric acid (with a minor contribution from the trehalose dihydrate), which at 26 mM (from a 1.0 N (0.5 M) stock solution) results in a moisture content~5% (w/w). When prepared using concentrated acid (e.g., 10 N), the overall moisture content of the formulation could be reduced to about ~1% without any significant impact on storage stability.
An example of the stability that can be achieved using this formulation approach at multiple temperatures for up to 6 months is shown in Table 1, which represents the purity of T4 (levothyroxine sodium) in the 10 mg/mL, 26-28 mM acid DMSO formulations described above, over time at various storage temperatures. Results shown are measurements of T4 vs. T3 (triiodothyronine, the main degradation product of T4), determined as described above via RP-HPLC. In this table, the higher the percentage of T4 and the lower the percentage of T3, the less degradation observed in the levothyroxine formulations over time.

[4] = Accelerated stability of 5 mg/mL levothyroxine in (acidified) DMSO: discoloration and RP-HPLC
Procedure: To attempt to overcome these discoloration and degradation problems, levothyroxine solutions were prepared with either the free acid or the sodium salt of levothyroxine dissolved in acidified DMSO, at a levothyroxine sodium concentration of 5 mg/mL. To prepare acidified DMSO solvents, DMSO was acidified with 0-10 mM H2SO4 (from a 1.0 N H2SO4 stock solution), and samples were stored in 2 mL glass vials (0.5 mL fill volume per vial) and stored at 45° C. upright for 9 days for an accelerated stability analysis without any secondary packaging (e.g., foil pouch). Samples were then photographed (to examine discoloration) and examined via reverse phase HPLC (to examine levothyroxine chemical stability), comparing day 0 samples to day 9 samples (vs. a sample of each formulation that was frozen and held at −20° C. as a “time 0” control).
To determine if the discoloration observed with these formulations correlated with levothyroxine chemical degradation, samples of each vial were assessed via reverse phase HPLC (RP-HPLC).

## N[C@@H](Cc1cc(I)c(Oc2cc(I)c(O)c(I)c2)c(I)c1)C(=O)O [levothyroxine]
[1]
  solubility in water: ≤ 0.1 mg/mL

## N[C@@H](Cc1cc(I)c(Oc2cc(I)c(O)c(I)c2)c(I)c1)C(=O)O [levothyroxine sodium]
[2]
  solubility: ≥ 30 mg/mL
[3]; <26 mM sulfuric acid
  chemical stability (T4 peak purity) vs acid concentration: extensive chemical degradation
[3]; above approximate 26 mM acid
  chemical stability (T4 peak purity) vs acid concentration: chemical stability essentially plateaus
[4]; 5 mg/mL in DMSO, 10 mM H2SO4, 9 days at 45° C.
  discoloration: no significant discoloration
[4]; 5 mg/mL in DMSO, H2SO4 below 4 mM, day 0
  discoloration: degradation-associated discoloration fairly quickly

## N[C@@H](Cc1cc(I)c(Oc2cc(I)c(O)c(I)c2)c(I)c1)C(=O)O [levothyroxine free acid]
[4]; 5 mg/mL in DMSO, 0-2 mM H2SO4, 9 days at 45° C.
  degradation by RP-HPLC: extensive degradation
[4]; 5 mg/mL in DMSO, 0-10 mM H2SO4, day 0
  discoloration: did not show significant discoloration
[4]; 5 mg/mL in DMSO, all concentrations of acid, 9 days at 45° C.
  discoloration compared to levothyroxine sodium salt: lower amount of discoloration
[4]; 5 mg/mL solution in DMSO, accelerated stability testing
  sulfuric acid concentration necessary to significantly enhance chemical stability: ~ 10 mM
